“Also recorded” adds a separate entry of the source. Where no end group is shown, it is not given here.
How the values were obtained:
[1] = test system: hyperproliferative psoriatic keratinocytes; assay: proliferation assay (Coulter cell counter) on hyperproliferative psoriatic keratinocytes; type: cell-based, human
Source text: Biopsy samples are obtained from psoriatic patients. Skin from patients with chronic plaque psoriasis are obtained with informed consent. Ethical approval has been obtained previously from The South Sheffield Regional Ethics Committee. Biopsies are all be taken from the lower back in psoriasis patients aged 40 to 60.
Remove subcutaneous tissue and some of the dermis with scissors, dissect skin into 1×2 cm pieces with a scalpel. Rinse the tissue 2-5 times in PBSA. Float skin samples on 0.6% Trypsin in PBSA (pH 7.4) ON at 4° C. (or alternatively for 20-30 min at 37° C.)
The separation of the epidermis is carefully monitored. When the first detachment of the epidermis is visible at the cut edges of the skin sample place the pieces (dermis-side down) in 100 mm Petri dishes. Irrigate with 5 ml of complete culture medium (incl. serum). Peel off the epidermis with forceps and collect it in a 50 ml centrifuge tube containing 20 ml of complete culture medium (KGM). Separate the keratinocytes from the epidermal cells by gently pipetting and sieving through a nylon gauze of 100 μm mesh. Wash the isolated epidermal cells twice in KGM by centrifugation at 100 g for 10 min, and count the total number of cells.
Cells are seeded at 37° C. in KGM medium at a density of 2500 cells/cm^2 in a 25 cm^2 cell culture flask. The medium is replaced every 48 hours and cells are passaged when confluent.
Cell Seeding and Analysis: Purchased secondary cultures or primary cultures (from donor skin) are seeded at 3500 cells/cm^2 in K-SFM 25 cm^2 tissue culture flasks. The medium is changed (5 ml per flask) the day after seeding and every other day thereafter. At 70-80% confluence the cells are subcultured by seeding 3500 cells per well in 24 well cell culture plates, each well containing 500 μl of K-SFM. One well plate is seeded for each treatment. After allowing one day for settling the cells are switched to experimental medium (500 μl per well). Stock solutions of additions are as before. Experimental treatments are as follows:
The medium is replaced every other day. Cells are harvested by trypsinisation. 500 μl Trypsin/EDTA is added to each well to be harvested and then aspirated off. The well plates are incubated for 5-6 min at 37° C. 500 μl PBS is added to the wells and the cells are resuspended. The cell suspension is added to 20 ml Isoton solution in a Coulter counter “Accuvette” and the cells are counted. On each harvest, 3 wells of cells are counted for each treatment and 3 counts were made for each well.
Cell number is calculated as follows: Coulter Counter removes 500 μl of 20 ml sample ( 1/40). Multiply cell count by 40 to obtain cell number in cup, this equals the total number of cells in one well (approximately, as ˜10% taken out for viability test). […]

retinoic acid synthesis = assay: RA synthesis in normal human epidermal keratinocytes; type: cell-based; settings: Carbenoxolone 6 μM, Disulfiram 15 μM or Citral 10 μM
Procedure: Protocols used are as described in as in Båvik et al., Experimental Cell research 1995:216, p. 358-362. Briefly, subcultures are grown to confluence in KGM. On day of confluence change to keratinocyte differentiation media (1.2 mM Ca^2+, KDM) with 2 μM holo-RBP+/−inhibitors ([…]; […]; 10 μM Citral; 0.2 mM 4-Methylpyrazole; 15 μM Disulfiram; 10 μM Citral; 2 mM 3-Mercaptopropionic acid; or drug vehicle alone). Cells are grown for 4 days, and cells are media are harvested.
The concentration of RA in cells and media is analysed directly by HPLC. Essentially as in “Characterisation of retinol metabolism in cultured human epidermal keratinocytes”, Randolph R. K. and Simon M., J. Biol. Chem. 268:9198-9205, 1993. The concentration of RA in cells is also analysed indirectly by Northern blot analysis of CRABPII mRNA expression in the keratinocytes, essentially as described in Elder et al. Retinoid Induction of CRABPII nRNA in Human Dermal Fibroblasts: Use as a Retinoid Bioassay, J. Investigative Dermatology 106:517-521, 1996.
The above two experiments are repeated, but with the use of normal human epithelial keratinocytes instead of psoriatic human epidermal keratinocytes.

COS-1 cells = assay: proliferation assay of COS-1 cells (Coulter counter); type: cell-based; settings: P142 1 mg/ml, peptides 6 μM; 24 and 48 hours after treatment; FIG. 7
Procedure: […] (COS1 and COS7) are purchased from the European Cell Culture Collection, thawed and propagated according to the instructions from the supplier; cells are cultured essentially in the same manner as for normal human keratinocytes (Example 3 above), except that cells are seeded at 20 000 cells/cm^2, with only one treatment with antibody P142, control immunoglobulin, peptide 589, peptide 592 or control peptide 24 hrs after seeding.
Proliferation is assayed by counting cells in a Coulter counter, as described above.

[2] = test system: human dermal fibroblast cells; assay: proliferation assay of human dermal fibroblast cells; type: cell-based; settings: P142 1 mg/ml, peptides 6 μM; 24 hours and 4 days after treatment; FIG. 9
Procedure: Fibroblast cell culture is performed essentially as described for culture of hyperproliferative psoriatic keratinocytes (Example 3), except that following irrigation with complete culture medium, the dermal portion is incubated with 1 mg/ml of collagenase (Sigma) in 20 ml DMEM in a 50 ml centrifuge tube for 16 hours at 37° C. Then 20 ml DMEM containing 5% foetal calf serum and 1% antibiotic/antimycotic solution (Gibco) is added and the cells seeded at 37° C. in DMEM medium+additions at a density of 2500 cells/cm^2 in a 25 cm^2 cell culture flask. Medium is replaced every 48 hours and cells passaged when confluent.
Fibroblast cell culture and experiments are performed essentially as described for culture of hyperproliferative psoriatic keratinocytes (above), except that following irrigation with complete culture medium, the dermal portion is processed further. Reference is made to fibroblast culture protocols set out above.
Proliferation of cells is assayed by direct cell counting essentially as for determination of proliferation in keratinocyte cell cultures. RDH, ADH, RalDH inhibitors are found to reduce proliferation.

Row | Molecule | effect on retinol/retinoic acid-induced keratinocyte proliferation (cell numbers) ([1]; RA synthesis inhibitors (Disulfiram 15 μM, Citral 10 μM, Carbenoxolone 12 μM), 1.2 mM Ca2+, 2 μM ROL, FIG. 10) | retinoic acid synthesis (retinoic acid synthesis) | effect on RBP-increased proliferation ([1]; peptides 6 μM, Ca2+ 1.2 mM, RBP 0.6 μM) | proliferation of Cos-1 cells (cell numbers) (COS-1 cells) | fibroblast proliferation (cell numbers) [2]
1 | CC1(C)[C@@H](OC(=O)CCC(=O)O)CC[C@]2(C)[C@H]3C(=O)C=C4[C@@H]5C[C@@](C)(C(=O)O)CC[C@]5(C)CC[C@@]4(C)[C@]3(C)CC[C@@H]12 [Carbenoxolone] | particularly marked effect | inhibited |  |  | 
2 | CC(C)=CCCC(C)=CC=O [Citral, 3,7-dimethyl-2,6-octadienal] |  | inhibited |  |  | 
3 | GRVRLLNNWDVCA |  |  | reversed; also recorded: reduces proliferation | marked reduction in proliferation | greater reduction in proliferation

From US8048918B2, “Treatment of hyperproliferative diseases” (Vampex Limited, priority 2000, dated 2011)
